The source of these data is patent US4466963A, “Pharmaceutical compositions” (John Wyeth & Brother Limited, priority 1982, dated 1984).

The subject of one series is normal mice (tail flick). As to the kind of experiment: tail flick latency (tail immersion in water at 50° C.). In kind it is in vivo. As for the experimental part:
In a further experiment groups of 10 normal mice were given meptazinol (40 mg/kg), ibuprofen (240 mg/kg), a mixture containing these doses of meptazinol and ibuprofen or the requisite volume of vehicle po immediately after measuring the latency to a distinct tail flick (following tail immersion in water at 50° C.). Tail flick latencies were measured again at 30 min intervals post dosing. As the mean pre-dose latencies of mice subjected to the tail immersion procedure were so similar to one another comparisons of the actual latencies at each recording time were made (Student's "t" test).
For orientation: Thermal pain tests record how soon the animal reacts.

For series [1], the system named is mice pretreated with carrageenin (hot-plate response). As to the kind of experiment: hot-plate response latency (brass hot-plate, 55° C.) of mice pretreated with carrageenin. Particulars: for Increase in latency (sec) cf. pre-dose control / Latency (sec) pre-dose control: ibuprofen 240, meptazinol 40, combination 240 + 40 mg/kg po; for Latency (sec) pre-dose control: pre-dose baseline of the group, SEM on the line below. In kind it is in vivo. The procedure: For example in one method used to measure the antinociceptive effects of meptazinol, ibuprofen and combinations of the two drugs, groups of 9 mice were given 0.025 ml of 2% carrageenin (in saline) sc into the plantar surface of both hind feet 3.0 hours before treatment. The latency to a distinct response following placement of the mice on a brass hot-plate (55° C.) was measured immediately prior to dosing with vehicle (0.5% hydroxypropyl-methylcellulose in water) or with drug.
The antinociceptive response at each recording time (t) was defined as the reaction time of the mouse at time t minus the reaction time at t=0 (immediately prior to dosing).
The results after dosing with vehicle, ibuprofen (240 mg/kg), meptazinol (40 mg/kg) and a combination of ibuprofen (240 mg/kg)+meptazinol (40 mg/kg) are given in Table 1 below: […]

The subject of another series is rats (gastric erosion). Particulars: well known for non-steroidal anti-inflammatory agents; cited from earlier work.
For series [2] the following is noted: rats given 3H meptazinol; previous studies; cited from earlier work.
A short description of series [3]: brain concentration of meptazinol after administration of 3H meptazinol alone or with ibuprofen. Conditions: for brain concentration of meptazinol: meptazinol 40 mg/kg po, or meptazinol + ibuprofen 40 + 240. In kind it is in vivo, mice. As for the experimental part: In a further experiment the brain concentration of meptazinol was measured after administration of meptazinol alone or a combination of ibuprofen and meptazinol. Groups of mice were given meptazinol (40 mg/kg) alone or meptazinol+ibuprofen (40+240 mg/kg) po containing 25 μCi/mouse of^3 H meptazinol. Six mice from each group were decapitated at 30 min intervals after dosing. The brain of each animal was removed and after the removal of the cerebellum, pons and medulla the remainder was homogenised in 10 ml ice cold Tris buffer. This was immediately centrifuged at 20,000 rpm for 5 min then a single 1 ml aliquot of the supernatant was taken for counting.

Setting [4] is: 30 min post dosing, ibuprofen 240, meptazinol 40, combination 40 + 240 mg/kg po, x p < .05 cf meptazinol alone.
Where [5] appears, read: 60 min post dosing, ibuprofen 240, meptazinol 40, combination 40 + 240 mg/kg po, xx p < .01 cf meptazinol alone.
Setting [6] is: 90 min post dosing, ibuprofen 240, meptazinol 40, combination 40 + 240 mg/kg po.
The mark [7] stands for this setting: time 0 (pre-dose), ibuprofen 240, meptazinol 40, combination 40 + 240 mg/kg po, SEM on the line below.
The mark [8] stands for this setting: 30 min post dosing, *p < .02 cf vehicle, x p < .02 cf meptazinol alone.
[9] abbreviates: 60 min post dosing, *p < .02 cf vehicle.
The mark [10] stands for this setting: 90 min post dosing, x p < .02 cf meptazinol alone.

On to `CC(C)Cc1ccc(C(C)C(=O)O)cc1` (stereo not drawn) [Ibuprofen, 2-(4-isobutylphenyl)propionic acid], for which the “Latency to a distinct tail flick” value in the series on normal mice (tail flick) (setting [4]) stood at 2.75 s; in the series on normal mice (tail flick) (setting [5]), 3.04 s; in the series with normal mice (tail flick) (setting [6]), 3.94 s; in the series with normal mice (tail flick) (setting [7]), 3.43 s. Further, the “effect on the tail flick latency” value in the series on normal mice (tail flick) (ibuprofen alone, 240 mg/kg po) is on record as “did not significantly affect the tail flick latency”. Also, the “Increase in latency (sec) cf. pre-dose control” value is -0.72 s in series [1] (setting [8]), -1.56 s in series [1] (setting [9]) and -1.30 s in series [1] (setting [10]). The antinociceptive response result in series [1] (ibuprofen 240 mg/kg alone) is “did not produce any antinociceptive response”. Further, the “Latency (sec) pre-dose control” value in series [1] is 7.16 s. The gastric damage result with rats (gastric erosion) was “induce gastric damage”.

As for `CCC1(c2cccc(O)c2)CCCCN(C)C1` (stereo not drawn) [Meptazinol, m-(3-ethylhexahydro-1-methyl[1H]azepin-3-yl) phenol], the “Latency to a distinct tail flick” value came to 4.24 s in the series with normal mice (tail flick) (setting [4]); 6.95 s with normal mice (tail flick) (30 min post dosing, meptazinol 80 mg/kg po, ***p < .0001 cf vehicle control); 4.85 s with normal mice (tail flick) (setting [5]); 6.75 s in the series on normal mice (tail flick) (60 min post dosing, meptazinol 80 mg/kg po, **p < .01); 4.80 s in the series with normal mice (tail flick) (setting [6]); 6.37 s with normal mice (tail flick) (90 min post dosing, meptazinol 80 mg/kg po, ***p < .0001 cf vehicle control). In addition, the “Latency to a distinct tail flick” value in the series with normal mice (tail flick) (setting [7]) came to 3.43 s; with normal mice (tail flick) (time 0 (pre-dose), meptazinol 80 mg/kg po), 3.54 s. The “antinociceptive response (tail flick)” value with normal mice (tail flick) (meptazinol 40 mg/kg alone) is “did induce a significant antinociceptive response”. Moreover, the “tritium in the brain in the form of meptazinol” value in series [2] is listed as “virtually all”. Besides, the “Increase in latency (sec) cf. pre-dose control” value worked out at 4.76 s in series [1] (setting [8]), 3.00 s in series [1] (setting [9]) and 1.76 s in series [1] (setting [10]). Further, in series [1], the “Latency (sec) pre-dose control” value amounted to 6.41 s. In addition, the “brain concentration of meptazinol” value in series [3] (30 min post treatment, **p < .01 cf meptazinol alone, (SEM not stated) on the line below) was found to be 18.4 Counts × 1000/min/g brain; in series [3] (60 min post treatment), 12.0 Counts × 1000/min/g brain; in series [3] (90 min post treatment, *p < .05 cf meptazinol alone), 7.4 Counts × 1000/min/g brain; in series [3] (120 min post treatment, **p < .01 cf meptazinol alone), 4.7 Counts × 1000/min/g brain. Moreover, the “concentration of tritium in the brain cf. same dose of meptazinol with 240 mg/kg ibuprofen” value in series [3] (meptazinol 40 mg/kg, 30, 60 and 90 min post dosing) was “approximately half”.
